The conditions of series [1]: thiol group(s); cited from earlier work.
Series [2] deals with canine islets. Kind of series: Cytotoxicity of UV light and photoinitiator on canine islets. The series is classed as cell-based. The following applies: 10 minutes UV ~40 mW/cm^2. As for the experimental part: (§1) Dead cells were identified using propidium iodine staining and fluorescence microscopy. Fluorescence micrographs were captured with a Cytation 5 Imaging Multi-Mode Reader (Biotek Instruments, Inc, 531/647 nm ex/em). Cell death was quantified by calculating the ratio of red (dead) pixels to total islet pixels using Adobe Photoshop. Twenty-five individual islets were analyzed per group and were distinguished from non-islet tissues via dithizone staining. Results are reported as the average viable cell fraction and normalized to islet viability of the matched, untreated controls (i.e., islet from the same batch in culture medium).
For PEGDA and methacrylated hyaluronic acid (MeHA) microparticles, photocrosslinking was utilized. Thus, studies examining the toxicity of ultraviolet light (UV) and the photoinitiator were first conducted. Canine islets were suspended in Dulbecco's phosphate buffered saline (DPBS) containing 0, 0.025 or 0.05% (w/v) of the photoinitiator, IRGACURE® 2959. Approximately 50 IEQ were loaded into wells of a 24-well plate and irradiated with long-wave ultraviolet (UV) light for 3, 5 or 10 minutes. […] Cell death was evaluated via propidium iodide staining and quantified as described in the previous section.

Series [3] has as its system canine islets. In words: Cytotoxicity of calcium (CSS component) on canine islets, propidium iodide staining. It counts as cell-based. As for the experimental part:
The cytotoxicity of calcium, a component in the CSS process, was tested by exposing canine islets to solutions containing either 100 mM or 200 mM calcium chloride, 10 mM HEPES buffer, and 20% PEGDA, MW 3,400 Da (Laysan Bio, Inc.) for 5, 10 or 15 minutes. A group was also exposed to 100 mM calcium chloride without PEGDA to evaluate the effect of calcium alone. Islets were suspended at approximately 5,000 IEQ/mL in the test solutions to emulate the high cell loading density associated with the encapsulation process. After calcium exposure, islets were washed twice with supplemented CMRL 1066 islet media and then incubated at 37° C. and 5% CO2 for 3 hours prior to assessment.
as §1

On to `SCCSCCS` [2,2'-thiodiethanethiol], for which, in series [1], the pKa (as a rule, the negative logarithm of the acid dissociation constant) was 9.4-9.5.

Take `SCCOCCS` [2-mercaptoethyl ether]: the pKa in series [1] was 10.5-10.7. Turning to `N[C@H](CS)CCS` [(S)-2 Aminobutane 1,4 dithiol], in series [1], the pKa was 8.5. Regarding `O=C(CCS)OCCOC(=O)CCS` [Glycol di(3mercaptopropionate)], the pKa in series [1] was 9.4-9.5. On to `O=C(CS)OCCOC(=O)CS` [Glycol dimercaptoacetate], for which the pKa in series [1] is listed as 7.9-8.1. For the molecule `SCCOCCOCCOCCOCCOCCS` [Hexaethhylene glycol dithiol], the pKa in series [1] was 10.5-10.7. Regarding `CC(C)(O)C(=O)c1ccc(OCCO)cc1` [IRGACURE® 2959, 2-Hydroxy-4′-(2-hydroxyethoxy)-2-methylpropiophenone], the viable cell fraction in the series with canine islets [2] (0.025% (w/v)) is on record as 94.5%; in the series with canine islets [2] (0.05% (w/v)), 87.2%.

With `[Ca+2].[Cl-].[Cl-]` [calcium, calcium chloride], the “exposure time tolerated by islets” value with canine islets [3] (100 mM calcium in concentrated, viscous PEGDA solution) is “at least 10 minutes”. For the same molecule, the “viability compared to controls” value in the series on canine islets [3] (100 mM calcium without PEGDA, 15 minutes) stood at 97.6%. For the same molecule, the cytotoxicity to islets entry in the series with canine islets [3] (200 mM calcium) was “rapidly cytotoxic”. Further, the “viability compared to matched, untreated controls” value in the series with canine islets [3] (100 or 200 mM calcium with PEGDA or 100 mM calcium alone, 5 minutes exposure) is listed as “above 97.5%”. On to Glyceryl dithioglycolate, for which, in series [1], the pKa is given as 7.9-8.1.
